# Active and inactive are the calls of the source. The calls are words filed in the database; no cut-off is given here.
# Experiments:
# Assay type in all cases: functional
# SF-295 = test: Cytotoxicity against human SF295 cells assessed as cell growth at 10 uM after 48 hrs by sulforhodamine B assay; conditions: for growth at 10 µM: SF-295, 48 h, read-out: Activity
# RPMI-8226 = test: Cytotoxicity against human RPMI8226 cells assessed as cell growth at 10 uM after 48 hrs by sulforhodamine B assay; conditions: for growth at 10 µM: RPMI-8226, 48 h, read-out: Activity
# MOLT-4 = test: Cytotoxicity against human MOLT4 cells assessed as cell growth at 10 uM after 48 hrs by sulforhodamine B assay; conditions: for growth at 10 µM: MOLT-4, 48 h, read-out: Activity
# K562 = test: Cytotoxicity against human K562 cells assessed as cell growth at 10 uM after 48 hrs by sulforhodamine B assay; conditions: for growth at 10 µM: K562, 48 h, read-out: Activity
# NCI-H522 = test: Cytotoxicity against human NCI-H522 cells assessed as cell growth at 10 uM after 48 hrs by sulforhodamine B assay
# HT-29 = test: Cytotoxicity against human HT-29 cells assessed as cell growth at 10 uM after 48 hrs by sulforhodamine B assay
# PC-3 = test: Cytotoxicity against human PC3 cells assessed as cell growth at 10 uM after 48 hrs by sulforhodamine B assay
# UACC-62 = test: Cytotoxicity against human UACC62 cells assessed as cell growth at 10 uM after 48 hrs by sulforhodamine B assay; conditions: for growth at 10 µM: UACC-62, 48 h, read-out: Activity
# HL-60(TB) = test: Cytotoxicity against human HL-60(TB) cells assessed as cell growth at 10 uM after 48 hrs by sulforhodamine B assay
# SR = test: Cytotoxicity against human SR cells assessed as cell growth at 10 uM after 48 hrs by sulforhodamine B assay
# EKVX = test: Cytotoxicity against human EKVX cells assessed as cell growth at 10 uM after 48 hrs by sulforhodamine B assay
# SK-MEL-2 = test: Cytotoxicity against human SK-MEL-2 cells assessed as cell growth at 10 uM after 48 hrs by sulforhodamine B assay
# OVCAR-4 = test: Cytotoxicity against human OVCAR4 cells assessed as cell growth at 10 uM after 48 hrs by sulforhodamine B assay
# T47D = test: Cytotoxicity against human T47D cells assessed as cell growth at 10 uM after 48 hrs by sulforhodamine B assay
# A549 = test: Cytotoxicity against human A549 cells assessed as cell growth at 10 uM after 48 hrs by sulforhodamine B assay
# HOP-62 = test: Cytotoxicity against human HOP62 cells assessed as cell growth at 10 uM after 48 hrs by sulforhodamine B assay
# HOP-92 = test: Cytotoxicity against human HOP92 cells assessed as cell growth at 10 uM after 48 hrs by sulforhodamine B assay
# NCI-H322M = test: Cytotoxicity against human NCI-H322M cells assessed as cell growth at 10 uM after 48 hrs by sulforhodamine B assay
# NCI-H460 = test: Cytotoxicity against human NCI-H460 cells assessed as cell growth at 10 uM after 48 hrs by sulforhodamine B assay
# NCI-H226 = test: Cytotoxicity against human NCI-H226 cells assessed as cell growth at 10 uM after 48 hrs by sulforhodamine B assay
# NCI-H23 = test: Cytotoxicity against human NCI-H23 cells assessed as cell growth at 10 uM after 48 hrs by sulforhodamine B assay
# COLO 205 = test: Cytotoxicity against human COLO205 cells assessed as cell growth at 10 uM after 48 hrs by sulforhodamine B assay
# HCC 2998 = test: Cytotoxicity against human HCC2998 cells assessed as cell growth at 10 uM after 48 hrs by sulforhodamine B assay
# HCT-116 = test: Cytotoxicity against human HCT116 cells assessed as cell growth at 10 uM after 48 hrs by sulforhodamine B assay
# HCT-15 = test: Cytotoxicity against human HCT15 cells assessed as cell growth at 10 uM after 48 hrs by sulforhodamine B assay
# KM12 = test: Cytotoxicity against human KM12 cells assessed as cell growth at 10 uM after 48 hrs by sulforhodamine B assay
# SW-620 = test: Cytotoxicity against human SW620 cells assessed as cell growth at 10 uM after 48 hrs by sulforhodamine B assay
# MCF7 = test: Cytotoxicity against human MCF7 cells assessed as cell growth at 10 uM after 48 hrs by sulforhodamine B assay
# MDA-MB-468 = test: Cytotoxicity against human MDA-MB-468 cells assessed as cell growth at 10 uM after 48 hrs by sulforhodamine B assay
# MDA-MB-231 = test: Cytotoxicity against human MDA-MB-231 cells assessed as cell growth at 10 uM after 48 hrs by sulforhodamine B assay
# Hs-578T = test: Cytotoxicity against human Hs 578T cells assessed as cell growth at 10 uM after 48 hrs by sulforhodamine B assay
# BT-549 = test: Cytotoxicity against human BT549 cells assessed as cell growth at 10 uM after 48 hrs by sulforhodamine B assay
# IGROV-1 = test: Cytotoxicity against human IGROV1 cells assessed as cell growth at 10 uM after 48 hrs by sulforhodamine B assay
# OVCAR-3 = test: Cytotoxicity against human OVCAR-3 cells assessed as cell growth at 10 uM after 48 hrs by sulforhodamine B assay
# OVCAR-5 = test: Cytotoxicity against human OVCAR5 cells assessed as cell growth at 10 uM after 48 hrs by sulforhodamine B assay
# OVCAR-8 = test: Cytotoxicity against human OVCAR8 cells assessed as cell growth at 10 uM after 48 hrs by sulforhodamine B assay
# SK-OV-3 = test: Cytotoxicity against human SKOV3 cells assessed as cell growth at 10 uM after 48 hrs by sulforhodamine B assay
# CCRF-CEM = test: Cytotoxicity against human CCRF-CEM cells assessed as cell growth at 10 uM after 48 hrs by sulforhodamine B assay
# 786-0 = test: Cytotoxicity against human 786-0 cells assessed as cell growth at 10 uM after 48 hrs by sulforhodamine B assay
# A498 = test: Cytotoxicity against human A498 cells assessed as cell growth at 10 uM after 48 hrs by sulforhodamine B assay
# ACHN = test: Cytotoxicity against human ACHN cells assessed as cell growth at 10 uM after 48 hrs by sulforhodamine B assay
# SN12C = test: Cytotoxicity against human SN12C cells assessed as cell growth at 10 uM after 48 hrs by sulforhodamine B assay
# RXF 393 = test: Cytotoxicity against human RXF393 cells assessed as cell growth at 10 uM after 48 hrs by sulforhodamine B assay
# TK-10 = test: Cytotoxicity against human TK10 cells assessed as cell growth at 10 uM after 48 hrs by sulforhodamine B assay
# UO-31 = test: Cytotoxicity against human UO31 cells assessed as cell growth at 10 uM after 48 hrs by sulforhodamine B assay
# LOX IMVI = test: Cytotoxicity against human LOXIMVI cells assessed as cell growth at 10 uM after 48 hrs by sulforhodamine B assay
# M14 = test: Cytotoxicity against human M14 cells assessed as cell growth at 10 uM after 48 hrs by sulforhodamine B assay
# Malme-3M = test: Cytotoxicity against human MALME-3M cells assessed as cell growth at 10 uM after 48 hrs by sulforhodamine B assay
# MDA-MB-435 = test: Cytotoxicity against human MDA-MB-435 cells assessed as cell growth at 10 uM after 48 hrs by sulforhodamine B assay
# SK-MEL-28 = test: Cytotoxicity against human SK-MEL-28 cells assessed as cell growth at 10 uM after 48 hrs by sulforhodamine B assay
# SK-MEL-5 = test: Cytotoxicity against human SK-MEL-5 cells assessed as cell growth at 10 uM after 48 hrs by sulforhodamine B assay
# UACC-257 = test: Cytotoxicity against human UACC257 cells assessed as cell growth at 10 uM after 48 hrs by sulforhodamine B assay
# DU-145 = test: Cytotoxicity against human DU145 cells assessed as cell growth at 10 uM after 48 hrs by sulforhodamine B assay
# SF-268 = test: Cytotoxicity against human SF268 cells assessed as cell growth at 10 uM after 48 hrs by sulforhodamine B assay
# SF-539 = test: Cytotoxicity against human SF539 cells assessed as cell growth at 10 uM after 48 hrs by sulforhodamine B assay
# SNB-19 = test: Cytotoxicity against human SNB19 cells assessed as cell growth at 10 uM after 48 hrs by sulforhodamine B assay
# SNB-75 = test: Cytotoxicity against human SNB75 cells assessed as cell growth at 10 uM after 48 hrs by sulforhodamine B assay
# U-251 = test: Cytotoxicity against human U251 cells assessed as cell growth at 10 uM after 48 hrs by sulforhodamine B assay
structure (smiles),measurement,setting,value
Cc1c(OCc2nnc(S)o2)ccc2c(-c3ccccc3)cc(=O)oc12,Activity,SF-295,inactive
same,Activity,RPMI-8226,inactive
same,Activity,MOLT-4,inactive
same,Activity,K562,inactive
same,Activity,NCI-H522,inactive
same,Activity,HT-29,inactive
same,Activity,PC-3,inactive
same,Activity,UACC-62,inactive
same,Activity,HL-60(TB),inactive
same,Activity,SR,inactive
same,Activity,EKVX,inactive
same,Activity,SK-MEL-2,inactive
same,Activity,OVCAR-4,inactive
same,Activity,T47D,inactive
same,Activity,A549,inactive
same,Activity,HOP-62,inactive
same,Activity,HOP-92,inactive
same,Activity,NCI-H322M,inactive
same,Activity,NCI-H460,inactive
same,Activity,NCI-H226,inactive
same,Activity,NCI-H23,inactive
same,Activity,COLO 205,inactive
same,Activity,HCC 2998,inactive
same,Activity,HCT-116,inactive
same,Activity,HCT-15,inactive
same,Activity,KM12,inactive
same,Activity,SW-620,inactive
same,Activity,MCF7,inactive
same,Activity,MDA-MB-468,inactive
same,Activity,MDA-MB-231,inactive
same,Activity,Hs-578T,inactive
same,Activity,BT-549,inactive
same,Activity,IGROV-1,inactive
same,Activity,OVCAR-3,inactive
same,Activity,OVCAR-5,inactive
same,Activity,OVCAR-8,inactive
same,Activity,SK-OV-3,inactive
same,Activity,CCRF-CEM,inactive
same,Activity,786-0,inactive
same,Activity,A498,inactive
same,Activity,ACHN,inactive
same,Activity,SN12C,inactive
same,Activity,RXF 393,inactive
same,Activity,TK-10,inactive
same,Activity,UO-31,inactive
same,Activity,LOX IMVI,inactive
same,Activity,M14,inactive
same,Activity,Malme-3M,inactive
same,Activity,MDA-MB-435,inactive
same,Activity,SK-MEL-28,inactive
same,Activity,SK-MEL-5,inactive
same,Activity,UACC-257,inactive
same,Activity,DU-145,inactive
same,Activity,SF-268,inactive
same,Activity,SF-539,inactive
same,Activity,SNB-19,inactive
same,Activity,SNB-75,inactive
same,Activity,U-251,inactive
CCCc1cc(=O)oc2c(C)c(OCc3nnc(SC)o3)ccc12,growth at 10 µM,SF-295,21.9%
CCCc1cc(=O)oc2cc(OCC(=O)n3nc(C)cc3C)ccc12,Activity,SF-295,inactive
same,Activity,RPMI-8226,inactive
same,Activity,MOLT-4,inactive
same,Activity,K562,inactive
same,Activity,NCI-H522,inactive
same,Activity,HT-29,inactive
same,Activity,PC-3,inactive
same,Activity,UACC-62,inactive
same,Activity,HL-60(TB),inactive
same,Activity,SR,inactive
same,Activity,EKVX,inactive
same,Activity,SK-MEL-2,inactive
same,Activity,OVCAR-4,inactive
same,Activity,T47D,inactive
same,Activity,A549,inactive
same,Activity,HOP-62,inactive
same,Activity,HOP-92,inactive
same,Activity,NCI-H322M,inactive
same,Activity,NCI-H460,inactive
same,Activity,NCI-H226,inactive
same,Activity,NCI-H23,inactive
same,Activity,COLO 205,inactive
same,Activity,HCC 2998,inactive
same,Activity,HCT-116,inactive
same,Activity,HCT-15,inactive
same,Activity,KM12,inactive
same,Activity,SW-620,inactive
same,Activity,MCF7,inactive
same,Activity,MDA-MB-468,inactive
same,Activity,MDA-MB-231,inactive
same,Activity,Hs-578T,inactive
same,Activity,BT-549,inactive
same,Activity,IGROV-1,inactive
same,Activity,OVCAR-3,inactive
same,Activity,OVCAR-5,inactive
same,Activity,OVCAR-8,inactive
same,Activity,SK-OV-3,inactive
same,Activity,CCRF-CEM,inactive
same,Activity,786-0,inactive
same,Activity,A498,inactive
same,Activity,ACHN,inactive
same,Activity,SN12C,inactive
same,Activity,RXF 393,inactive
same,Activity,TK-10,inactive
same,Activity,UO-31,inactive
same,Activity,LOX IMVI,inactive
same,Activity,M14,inactive
same,Activity,Malme-3M,inactive
same,Activity,MDA-MB-435,inactive
same,Activity,SK-MEL-28,inactive
same,Activity,SK-MEL-5,inactive
same,Activity,UACC-257,inactive
same,Activity,DU-145,inactive
same,Activity,SF-268,inactive
same,Activity,SF-539,inactive
same,Activity,SNB-19,inactive
same,Activity,SNB-75,inactive
same,Activity,U-251,inactive
Cc1c(OCc2nnc(-c3ccccc3)o2)ccc2c(-c3ccccc3)cc(=O)oc12,growth at 10 µM,RPMI-8226,47.5%
Cc1c(OCc2nnc(S)n2Cc2ccccc2)ccc2c(-c3ccccc3)cc(=O)oc12,growth at 10 µM,SF-295,45.8%
same,growth at 10 µM,RPMI-8226,31.5%
same,growth at 10 µM,MOLT-4,49%
same,growth at 10 µM,K562,53.6%
same,growth at 10 µM,"NCI-H522; NCI-H522, 48 h, read-out: Activity",56.6%
same,growth at 10 µM,"HT-29; HT-29, 48 h, read-out: Activity",57.1%
same,growth at 10 µM,"PC-3; PC-3, 48 h, read-out: Activity",56.6%
same,growth at 10 µM,UACC-62,59.9%
CCCc1cc(=O)oc2cc(OCc3nnc(S)n3Cc3ccccc3)ccc12,growth at 10 µM,SF-295,53%
same,growth at 10 µM,RPMI-8226,37.3%
same,growth at 10 µM,MOLT-4,58.7%
same,growth at 10 µM,K562,46.9%
same,growth at 10 µM,UACC-62,59.7%
same,growth at 10 µM,"HL-60(TB); HL-60, 48 h, read-out: Activity",59.7%
same,growth at 10 µM,SR; read-out: Activity,57.6%
same,growth at 10 µM,EKVX; read-out: Activity,57.7%
same,growth at 10 µM,"SK-MEL-2; SK-MEL-2, 48 h, read-out: Activity",53.4%
same,growth at 10 µM,"OVCAR-4; OVCAR-4, 48 h, read-out: Activity",48.7%
same,growth at 10 µM,T47D; read-out: Activity,50.7%
